Here are results for five compounds from patent publication US12251449B2, “Synthetic multidomain peptide biomaterials that inhibit inducible nitric oxide synthase” (William Marsh Rice University, priority 2019, dated 2025).

Entries after “also recorded” stand apart in the source; their conditions may differ.

Series [1] deals with MOC1 tumors. Briefly: MOC orthotopic murine model of oral cancer (Example 9). To be noted: established 4-5 mm MOC1 tumors, single intratumoral injection.
Protocol: MOC orthotopic murine model of oral cancer. MOC1 tumors were established by injecting 2×10^6 cells (70%:30% cells: Matrigel®Matrix) into the maxillary vestibule of the left oral cavity in C57BL/6J mice. […] Tumor growth was monitored by tumor size measurements (in diameter) taken at least two times per week using digital calipers to measure the longest dimension (single dimension). Data was then analyzed for Kaplan-Meier survival and tumor growth curves. […] Excessive tumor burden, defined as tumor diameter reaching 12 mm, tumor ulceration, or a weight loss of greater than 20% were factors that were considered for all endpoints in tumor growth and survival data.
Statistical methods. Statistical analyses were performed using Prism 7.0 (GraphPad, San Diego, CA). Statistical analyses for Kaplan-Meier survival curves were performed using the Log-rank/Mantel-Cox test. Statistical significance for tumor growth curves was determined by a two-way ANOVA test followed by selected comparison using Tukey's multiple comparison tests with multiple comparison correction. All p values were two-sided and p values less than 0.05 were considered significant.
Series [2] deals with VEGF. The experiment in a line: Serum VEGF ELISA in mice bearing B16-F0 melanoma tumors. It is filed as in vivo. Particulars: 5 days after single 100 μL intratumoral injection. On the procedure:
Evaluation of in vivo VEGF reduction using murine B16-F0 melanoma tumor model. C57BL/6J male mice were purchased from The Jackson Laboratory. […] All experiments were performed with approval of IACUC at Baylor College of Medicine (BCM) and followed established protocols. B16-F0 melanoma cell line was purchased from American Type Culture Collection (ATCC) and maintained according to manufacturer instructions (DMEM high-glucose with 10% fetal bovine serum and 1% penicillin/streptomycin). C57BL/6J mice were injected subcutaneously (s.c.) with 3×10^5 B16-F0 cells in a single flank. Once tumors became palpable (day 7 post-inoculation) mice were injected intratumorally (i.t.) with either vehicle buffer control Hank's Balanced Salt Solution (HBSS), free L-NIL dissolved in HBSS at 20 mM, K2-MDP hydrogel at 1 wt. % (5.6 mM peptide), or L-NIL-MDP hydrogel at 1 wt. % (5.2 mM peptide, or approximately 20 mM L-NIL functional groups). All injections were done using 100 μL total injection volume.
Mice were euthanized 5 days following i.t. injections and tumor/blood were collected. […] VEGF quantification of undiluted serum was performed using a mouse VEGF Quantikine ELISA kit (R&D Systems, Minneapolis, MN) following manufacturer's instructions. […] Statistical differences were evaluated using Tukey's multiple comparisons test. […]
Background: In an ELISA, binding on a coated surface is turned into a signal by an enzyme label.

Series [3] deals with RAW 264.7 cells. Briefly: Live-dead viability of RAW 264.7 cells on MDP hydrogels. It is filed as cell-based, mouse. Particulars: RAW macrophages on 1 wt. % hydrogel, one to three days. The procedure: Cell culture. For in vitro experiments, mouse RAW 264.7 cells (ATCC TIB-71) were grown in DMEM media supplemented with 10% Heat-Inactivated Fetal Bovine Serum (HI-FBS), L-glutamine, sodium pyruvate, and 1% penicillin-streptomycin. Cells were cultured at 37° C. with 5% CO2 and subcultured using scraping.
For 2-D culture live-dead viability studies, peptide hydrogels were pipetted into 0.4 cm^2 wells of Lab-Tek 16 well glass chamber slides (Thermo Fischer, Rochester, NY). Gels were pipetted to produce 70 μL pucks with a thickness of 1.75 mm. The gels were carefully pipetted into the bottom of each well and tapped before shear recovery to create flat gel profiles. After pipetting, the samples were allowed to shear recover for 5-10 min before adding 200 μL cell media and 10,000 RAW 264.7 cells. For each experiment time point (days 1 and 3) separate slides with duplicate gels were created. The cell media was changed every 2 days, taking care to not disturb or dislodge the gel material.
At each desired time point the following procedure was used to stain the cells for live-dead analysis. Live-dead staining solution was prepared in DPBS (Thermo Fisher Scientific, Rockford, IL) with 2 μM Calcein AM (Life Technologies), 4 μM Ethidium homodimer (Life Technologies), and 5 μg/mL Hoechst 33342 (BD Biosciences, San Jose, CA). Cell media was removed from the top of the hydrogel samples, which were then washed with PBS. Samples were then stained with 100 μL of prepared solution by incubating at 37° C. with 5% CO2 for 60 min while protected from light. After staining, the gels were removed from the glass chamber slides and placed in PBS before immediately imaging by confocal. Gels were analyzed by z-stack imaging using a Nikon A1 Confocal Microscope with a 40× water objective (405 nm blue channel laser, 488 nm green channel laser, 561 nm red channel laser). Image processing was done using NIS Elements, and Imaris Cell Counting software was used to quantify live-dead percentages.

The target of series [4] is T1, iNOS (Mus musculus, UniProt P29477).
T1 construct: endogenous in cells; host or cells: RAW 264.7 murine macrophages stimulated with LPS and IFN-gamma
T1 sequence (P29477 1-1144): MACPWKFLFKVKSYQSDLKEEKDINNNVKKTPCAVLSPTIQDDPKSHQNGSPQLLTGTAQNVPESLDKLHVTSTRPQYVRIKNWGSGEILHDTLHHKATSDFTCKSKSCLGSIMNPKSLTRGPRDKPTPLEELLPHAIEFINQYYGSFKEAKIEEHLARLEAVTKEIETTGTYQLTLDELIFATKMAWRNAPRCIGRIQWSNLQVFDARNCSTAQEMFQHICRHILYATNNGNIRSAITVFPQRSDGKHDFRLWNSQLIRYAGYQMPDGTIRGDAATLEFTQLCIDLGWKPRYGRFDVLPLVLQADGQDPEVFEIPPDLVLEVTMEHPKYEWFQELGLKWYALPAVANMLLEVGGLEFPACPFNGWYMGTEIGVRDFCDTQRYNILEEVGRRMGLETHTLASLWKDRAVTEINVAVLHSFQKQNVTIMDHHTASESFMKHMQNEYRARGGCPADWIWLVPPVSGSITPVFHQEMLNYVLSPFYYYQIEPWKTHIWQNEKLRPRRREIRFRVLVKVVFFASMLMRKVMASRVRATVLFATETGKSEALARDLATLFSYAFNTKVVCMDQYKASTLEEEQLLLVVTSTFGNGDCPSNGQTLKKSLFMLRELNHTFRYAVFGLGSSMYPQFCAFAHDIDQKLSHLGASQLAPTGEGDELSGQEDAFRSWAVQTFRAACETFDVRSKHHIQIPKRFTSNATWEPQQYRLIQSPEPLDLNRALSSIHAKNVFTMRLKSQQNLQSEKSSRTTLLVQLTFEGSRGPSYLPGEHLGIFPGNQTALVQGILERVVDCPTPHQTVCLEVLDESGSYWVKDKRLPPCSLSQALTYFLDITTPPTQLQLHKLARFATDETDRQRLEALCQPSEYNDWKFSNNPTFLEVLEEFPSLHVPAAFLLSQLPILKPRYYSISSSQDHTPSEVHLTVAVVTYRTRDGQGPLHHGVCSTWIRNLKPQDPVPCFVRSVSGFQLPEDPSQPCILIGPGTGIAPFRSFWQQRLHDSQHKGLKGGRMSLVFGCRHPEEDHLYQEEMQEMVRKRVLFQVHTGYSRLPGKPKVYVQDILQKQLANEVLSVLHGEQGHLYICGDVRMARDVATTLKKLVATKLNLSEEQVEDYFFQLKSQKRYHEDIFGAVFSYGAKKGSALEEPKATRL
The experiment in a line: iNOS knockdown in vitro Greiss assay. It is filed as cell-based. Particulars: stimulated RAW macrophages cultured on the hydrogel. The procedure:
iNOS knockdown in vitro Greiss assay. To evaluate the iNOS knockdown efficacy of various materials, the following procedure was used to test % iNOS inhibition of RAW 264.7 cells stimulated with Lipopolysaccharide (LPS, Thermo Fisher Scientific, Rockford, IL) and recombinant mouse IFN-7 (Biolegend, San Diego, CA). RAW macrophages were prepared at a stock concentration of 2.5×10^6 cells/mL, and plated at 2.5×10^5 cells per well in 24-well plates. For samples testing the efficacy of 2-D surface cell culture, 200 μL of MDP hydrogels was applied to evenly coat the surface of each well before addition of cells. Each experimental condition was performed in triplicate. The following controls were included in every experiment, 1) media alone, 2) stimulated cells alone, and 3) unstimulated cells alone. To each well, stimulation media or normal media was then added based on experimental requirement. Stimulation media was prepared with LPS (final concentration 1 μg/mL) and IFN-7 (final concentration 100 U/mL). For samples testing material efficacy in solution (e.g. free L-NIL), after 6 hrs of incubation at 37° C. with 5% CO2 the desired concentration of inhibitor was added to achieve a range of concentrations between 1 μM and 1 mM.
In all cases after 24 hours from time of stimulation, samples of cell media were collected from each well after mixing media by pipetting before collection. Media samples were placed into a 96-well plate and centrifuged at 5000 rpm for 10 min. Supernatants were removed and placed in a new clear 96-well plate, and samples were immediately analyzed using a colorimetric Greiss Assay (Cayman Chemical, Ann Arbor, MI) to assess nitrite levels (Bryan & Grisham, 2007). Color was allowed to develop for 10 min following addition of Greiss reagents, and absorbance was read at 540 nm on a plate reader. Percent iNOS inhibition for each sample was calculated by first subtracting the absorbance of the media-only baseline, and then converting to a percent of maximum nitrite signal as determined by the internal standard of stimulated cells alone.

A short description of series [5]: CDN drug release kinetics from hydrogels. It is filed as physicochemical. The procedure:
Drug release kinetics. For release kinetics studies of CDN release from various hydrogel formulations, aliquots of CDN-loaded gel (30 μL each) were deposited into 96 well Falcon® flat bottom plates (Becton Dickinson Labware, Franklin Lakes, NJ). 30 μL gel was pipetted to generate a cylindrical puck in each well for each experiment. The pipetted gels were allowed to shear recover for approximately 5-10 min before adding 200 μL of the relevant buffer to the top of the gels (1× HBSS for all MDPs, 1× DPBS for collagen, Matrigel, 1× HBSS with 0.1 M CaCl2) for alginate, etc. according to the gelation requirements of the material). The addition of buffer was defined as t=0 for the beginning of release kinetics experiments. Table 1 summarizes the material conditions and preparation methods used for various comparative CDN delivery kinetics studies.
A Nanodrop 2000C Spectrophotometer (Thermo Scientific) was used to measure drug release by UV absorbance at 259 nm for CDN ML RR-S2 CDA, using an extinction coefficient of 24,000 M^−1cm^−1 (259 nm). Absorbance measurements were obtained by removing […] from the top of the liquid buffers above the loaded gels, over time measuring the increase in absorbance. Over the course of the first 24 hours, release of CDN was measured usually every 1-2 hours and converted to total percent released, with additional measurements also made every 24 hours for up to a week to establish when equilibrium had been reached.

Series [6] has as its system iNOS. Briefly: Anti-nitrotyrosine immunostaining of subcutaneously injected hydrogels. It is filed as in vivo, mice. Particulars: subcutaneous implants, 3 and 7 days post injection. On the procedure:
Subcutaneous experiments and histology. C57BL/6J female mice were purchased from The Jackson Laboratory at age 8-12 weeks for subcutaneous characterization experiments. Mice were housed under specific pathogen-free conditions in standard temperature and lighting conditions with free access to food and water, and experiments were conducted with approval of the Institutional Animal Care and Use Committee (IACUC) at Rice University and according to NIH guidelines. Mice were injected with 100 μL MDP hydrogels in each of four separate sites in the subcutaneous space of the dorsal flank after the skin was shaved and sterilized with alcohol. At days 3, 7, 14, and 21 the mice were euthanized and the dorsal skin around the entire implant was removed, fixed overnight in 10% neutral buffered formalin, processed and paraffin embedded, and finally sectioned at […] thickness for staining using standard Masson's trichrome or hematoxylin and eosin (H&E) procedures, as well as immunohistochemical analyses (e.g., anti-nitrotyrosine IHC, or α-SMA blood vessel analysis).
Immunohistochemistry staining was performed on hydrogel implant tissue sections to further study in vivo properties of the L-NIL-MDP compared to related cationic MDPs. Anti-nitrotyrosine immunostaining was used to assess relative levels of nitrosylation of tyrosine within and around the subcutaneously injected hydrogel implants as a marker of iNOS inhibition (FIGS. 7A-H). It is known that the formation of nitric oxide (NO) and other nitrogen oxides in vivo can lead to observable post-translation modifications of peptides and proteins (Ischiropoulos, 2003). For example, surface-exposed 3-nitrotyrosine can be used as a marker of cell or tissue inflammation and damage by reactive nitrogen and oxygen species such as NO (Ahsan, 2013). The higher the local levels of iNOS activity, the greater should be the density of nitrosylated tyrosine. Therefore, visualization of nitrotyrosine levels by targeted antibodies can serve as a general indication of in vivo iNOS activity, or in the case of the L-NIL-MDP, local iNOS inhibition.

Take `Nc1ncnc2c1ncn2[C@@H]1O[C@@H]2COP(O)(=S)O[C@@H]3C(O)[C@@H](COP(O)(=S)O[C@H]2[C@H]1O)O[C@H]3n1cnc2c(N)ncnc21` (stereo partly drawn) [CDN, ML RR-S2 CDA]: in series [1], the “mice surviving to the 150-day endpoint” value turned out to be 20%.

As for `CC(=N)NCCCC[C@H](N)C(=O)O` [L-NIL, N6-(1-iminoethyl)-L-lysine, reference compound], the “reduction of systemic VEGF levels (in words)” value in series [2] is given as “not achieved”.

With “Ac-EESLSLSLSLSLSLEE-NH2 [E2-MDP, E2(SL)6E2]”, the “cell attachment, survival and proliferation (in words)” value in series [3] is “poorer cell survival and proliferation rates”. The “iNOS inhibition (in words)” value in series [4] was “little to no iNOS inhibition”. Further, the “CDN release profile (in words)” value in series [5] is recorded as “nearly identical release profiles to each other”.

In the case of “Ac-RRSLSLSLSLSLSLRR-NH2 [R2-MDP, R2(SL)6R2]”, the “cell attachment, survival and proliferation (in words)” value in series [3] was “highest degrees of cell attachment and proliferation”. In addition, the “iNOS inhibition (in words)” value in series [4] is “little to no iNOS inhibition; also recorded: lowest iNOS inhibition”. Also, the “nitrotyrosine staining intensity (in words)” value in series [6] is listed as “highest nitrotyrosine staining”.

Regarding O5(SL)6O5 [05-MDP], in series [5], the “CDN release profile (in words)” value was “nearly identical release profiles to each other”.
